According to US5021595A, “Transition metal catalyst composition for olefin polymerization” (Exxon Chemical Patents Inc., priority 1990, dated 1991):
Where two headings read alike, the source gives them in different places.

How the values were obtained:
[1] = Preparation of polyethylene (batch ethylene polymerization); conditions: 1 mmole catalyst, 5 mmoles ethyl aluminum sesquichloride, room temperature, 0.5 hrs
Protocol: In a 1.5 liter reaction vessel was introduced 800 ml of hexane. This was maintained at room temperature and ethylene was slowly bubbled in at the rate of 34 gms/hour. When the solution was saturated, 5 mmoles of Ethyl aluminum sesquichloride was added as a solution in hexane followed by a solution of 1 mmole of the transition metal catalyst compound dissolved in toluene. […] The polymerization was maintained for 0.5 hrs with constant monomer addition. At the end of the polymerization period, the polymerization was terminated by the addition of 5 ml of isopropanol and the polymer was recovered by filtration and dried to constant weight.

[2] = Catalyst lifetime in isothermal tubular reactor polymerization, first order decay; conditions: isothermal 40° C.
[3] = Ethylene/propylene copolymerization in continuous flow stirred tank reactor (catalyst productivity); conditions: CFSTR, residence time 11 minutes
Protocol: A series of copolymers based on ethylene and propylene monomers were prepared in a continuous flow stirred tank reactor using the vanadium
The polymerization results as set forth in Table 1 are expressed as polymer made in the reactor in gms per hour.

[4] = Conversion of vanadium component into active catalyst (tubular reactor, premixing); conditions: premixing residence time 8 seconds, temperature varied to maximize conversion
Protocol: The vanadium component attains a maximum conversion to the active catalyst under certain premixing conditions determined by the concentrations of the vanadium and aluminum components and the residence time in the premixing zone and the reaction temperature. The experiment was conducted with identical concentrations of vanadium compound and the same molar ratio of aluminum to vanadium. The premixing experiment was run for the residence time of 8 seconds and the reaction temperature was varied to maximize the conversion of the vanadium component into the active catalyst.

[5] = Ethylene/propylene copolymerization in tubular reactor (polymerization rate); conditions: for Effectiveness in polymerizing ethylene/propylene compared to VCl4 (in words): tubular reactor process; for Polymerization Rate (polymer made in the reactor): tubular reactor, 15° C. at the initial zone, adiabatic, premix 8 sec at 10° C. (Example 12) or -10° C. (all others)
From the text: The polymerization results are shown in Table II and are expressed/as polymer made in the reactor in gms per hour.

[6] = Copolymerization of norbornene type monomers with ethylene/propylene in CFSTR; conditions: 30° C.
Protocol: Polymerization experiments were conducted in a continuous flow stirred tank reactor process wherein norbornene type monomers such as norbornene and 5-ethylidene-2-norbornene (ENB) are copolymerized employing the invention catalysts. The polymerization was conducted under the following conditions:
Ethyl aluminum sesquichloride:
Tetraethoxysilane at .208 gms/hr

[7] = tubular reactor systems, pre-mixing and aging, in some cases; cited from earlier work
[8] = tubular reactor
[9] = Condition A: no norbornene monomer
[10] = Condition B: Norbornene at 10.3 gms/hr
[11] = Condition C: Norbornene at 20.6 gms/hr
[12] = Condition D: ENB at 12.4 gms/hr + Tetraethoxysilane at .208 gms/hr

| Compound | Wt of PE [1] [GMS] | Half-Life at 40° C. [2] [s] | Catalyst Productivity at Specified Temperature (polymer made in the reactor) ([3]; 30° C.) [gms per hour] | Catalyst Productivity at Specified Temperature (polymer made in the reactor) ([3]; 45° C.) [gms per hour] | Catalyst Productivity at Specified Temperature (polymer made in the reactor) ([3]; 60° C.) [gms per hour] | Catalyst Conv % (percentage of vanadium converted to the active catalyst at maximum) [4] [%] | Effectiveness in polymerizing ethylene/propylene compared to VCl4 (in words) [5] | Polymerization Rate (polymer made in the reactor) [5] [gms per hour] | Polymerization rate [6, 9] [gms/hr] | Polymerization rate [6, 10] [gms/hr] | Polymerization rate [6, 11] [gms/hr] | Polymerization rate [6, 12] [gms/hr] | Deactivation of catalyst formed, based on the moles of the initial vanadium compound added [7] | Half-Life at 40° C. [8] [s] |
| --- | --- | --- | --- | --- | --- | --- | --- | --- | --- | --- | --- | --- | --- | --- |
| Bis hexanoate mono chloro titanium [Catalyst Code 5] | 13.5 | – | – | – | – | – | – | – | – | – | – | – | – | – |
| Hexanoate Salicaldehyde mono chloro vanadium (+3) [Catalyst Code 4] | 15.0 | 10.0 | 90 | 73 | 56 | – | – | – | – | – | – | – | – | – |
| Bis hexanoate mono chloro vanadium (+3) [Catalyst Code 1] | 13.9 | 19.8 | 95 | 68 | 58 | 67 | significantly more effective than VCL4 in polymerizing ethylene/propylene monomers | 832 | 171 | 171 | 168 | 160 | – | – |
| CC(=O)C=C(C)[O-].CCCCCC(=O)[O-].[Cl-].[V+3] [Catalyst Code 3, Hexanoate (2,4-Pentanedionate) mono chloro vanadium (+3)] | 15.0 | 13.8 | 87 | 64 | 51 | 75 | significantly more effective than VCL4 in polymerizing ethylene/propylene monomers | 891 | 165 | 178 | 164 | 165 | – | – |
| Tetra chloro vanadium (+4) [Catalyst Code 0, reference compound] | – | 2.5 | – | – | – | – | – | – | – | – | – | – | up to 55 mole percent | – |
| CC(=O)C=C(C)[O][V]([Cl])[O]C(C)=CC(C)=O [Catalyst Code 2, Bis (2,4-pentanedionate) mono chloro vanadium (+3)] | 14.3 | – | 92 | 64 | 51 | 72 | significantly more effective than VCL4 in polymerizing ethylene/propylene monomers | 878 | 169 | 164 | 159 | 152 | – | 11.6 |
